Test system: CPA-CLP sepsis mouse model
Assay: Effects of LPC concentrations on mortalities/survivabilities in CPA-CLP sepsis mouse model (SEP008); s.c. 4 times 12-hr intervals from 6 hrs after CLP
Assay type: in vivo, ICR mice
Method: CPA is well known as an immunosuppressive agent. […] Then, the abdomen was closed following the general procedure.
Then, body weight and mortality changes were observed.
In the Sham and CLP control groups, 10 ml/kg of only 5% human serum albumin was subcutaneously dosed at the same intervals.

Lysophosphatidylcholine [LPC]
10%: survivabilities (LPC 2.5 mpk, Day 4) | survivabilities (LPC 5 mpk, Day 6)
20%: survivabilities (LPC 1 mpk, Day 3) | survivabilities (LPC 10 mpk, Day 6) | survivabilities (LPC 20 mpk, Day 5) | survivabilities (LPC 20 mpk, Day 6)
70%: survivabilities (LPC 10 mpk, Day 2)
1/5: Mortalities (LPC 5 mpk, Day 3) | Mortalities (LPC 10 mpk, Day 5)
2/4: Mortalities (LPC 1 mpk, Day 3) | Mortalities (LPC 10 mpk, Day 6) | Mortalities (LPC 20 mpk, Day 5)
0/0: Mortalities (LPC 1 mpk, Day 5) | Mortalities (LPC 1 mpk, Day 6) | Mortalities (LPC 1 mpk, Day 7) | Mortalities (LPC 2.5 mpk, Day 6) | Mortalities (LPC 2.5 mpk, Day 7)
10 mg/kg: optimal effective dose (CPA-CLP model)
1/1: Mortalities (LPC 2.5 mpk, Day 5) | Mortalities (LPC 5 mpk, Day 7)
30%: survivabilities (LPC 2.5 mpk, Day 3) | survivabilities (LPC 5 mpk, Day 4) | survivabilities (LPC 5 mpk, Day 5)
2/2: Mortalities (LPC 1 mpk, Day 4) | Mortalities (LPC 10 mpk, Day 7) | Mortalities (LPC 20 mpk, Day 7)
4/10: Mortalities (LPC 1 mpk, Day 1) | Mortalities (LPC 5 mpk, Day 1)
60%: survivabilities (LPC 1 mpk, Day 1) | survivabilities (LPC 2.5 mpk, Day 2) | survivabilities (LPC 5 mpk, Day 1) | survivabilities (LPC 10 mpk, Day 3) | survivabilities (LPC 20 mpk, Day 3)
40%: survivabilities (LPC 1 mpk, Day 2) | survivabilities (LPC 5 mpk, Day 3) | survivabilities (LPC 10 mpk, Day 5) | survivabilities (LPC 20 mpk, Day 4)
1/10: Mortalities (LPC 10 mpk, Day 1) | Mortalities (LPC 20 mpk, Day 1)
1/7: Mortalities (LPC 10 mpk, Day 3)
50%: survivabilities (LPC 5 mpk, Day 2) | survivabilities (LPC 10 mpk, Day 4)
2/6: Mortalities (LPC 1 mpk, Day 2) | Mortalities (LPC 20 mpk, Day 4)
3/6: Mortalities (LPC 2.5 mpk, Day 3)
significantly increased: survival time (all the five doses of LPC in CPA-CLP mice)
1/6: Mortalities (LPC 5 mpk, Day 2) | Mortalities (LPC 10 mpk, Day 4)
2/10: Mortalities (LPC 2.5 mpk, Day 1)
0/2: Mortalities (LPC 20 mpk, Day 6)
0%: survivabilities (LPC 1 mpk, Day 4) | survivabilities (LPC 1 mpk, Day 5) | survivabilities (LPC 1 mpk, Day 6) | survivabilities (LPC 1 mpk, Day 7) | survivabilities (LPC 1 mpk, Total) | survivabilities (LPC 2.5 mpk, Day 5) | survivabilities (LPC 2.5 mpk, Day 6) | survivabilities (LPC 2.5 mpk, Day 7) | survivabilities (LPC 2.5 mpk, Total) | survivabilities (LPC 5 mpk, Day 7) | survivabilities (LPC 5 mpk, Total) | survivabilities (LPC 10 mpk, Day 7) | survivabilities (LPC 10 mpk, Total) | survivabilities (LPC 20 mpk, Day 7) | survivabilities (LPC 20 mpk, Total)
100%: survivabilities (LPC 1 mpk, 1st CPA treat) | survivabilities (LPC 1 mpk, 2nd CPA treat) | survivabilities (LPC 1 mpk, At CLP (day 0)) | survivabilities (LPC 2.5 mpk, 1st CPA treat) | survivabilities (LPC 2.5 mpk, 2nd CPA treat) | survivabilities (LPC 2.5 mpk, At CLP (day 0)) | survivabilities (LPC 5 mpk, 1st CPA treat) | survivabilities (LPC 5 mpk, 2nd CPA treat) | survivabilities (LPC 5 mpk, At CLP (day 0)) | survivabilities (LPC 10 mpk, 1st CPA treat) | survivabilities (LPC 10 mpk, 2nd CPA treat) | survivabilities (LPC 10 mpk, At CLP (day 0)) | survivabilities (LPC 20 mpk, 1st CPA treat) | survivabilities (LPC 20 mpk, 2nd CPA treat) | survivabilities (LPC 20 mpk, At CLP (day 0))
0/10: Mortalities (LPC 1 mpk, 1st CPA treat) | Mortalities (LPC 1 mpk, 2nd CPA treat) | Mortalities (LPC 1 mpk, At CLP (day 0)) | Mortalities (LPC 2.5 mpk, 1st CPA treat) | Mortalities (LPC 2.5 mpk, 2nd CPA treat) | Mortalities (LPC 2.5 mpk, At CLP (day 0)) | Mortalities (LPC 5 mpk, 1st CPA treat) | Mortalities (LPC 5 mpk, 2nd CPA treat) | Mortalities (LPC 5 mpk, At CLP (day 0)) | Mortalities (LPC 10 mpk, 1st CPA treat) | Mortalities (LPC 10 mpk, 2nd CPA treat) | Mortalities (LPC 10 mpk, At CLP (day 0)) | Mortalities (LPC 20 mpk, 1st CPA treat) | Mortalities (LPC 20 mpk, 2nd CPA treat) | Mortalities (LPC 20 mpk, At CLP (day 0))
2/9: Mortalities (LPC 10 mpk, Day 2)
80%: survivabilities (LPC 2.5 mpk, Day 1) | survivabilities (LPC 20 mpk, Day 2)
1/9: Mortalities (LPC 20 mpk, Day 2)
1/4: Mortalities (LPC 5 mpk, Day 4)
about 1 mg/kg: minimal effective dose (CPA-CLP model)
2/3: Mortalities (LPC 2.5 mpk, Day 4) | Mortalities (LPC 5 mpk, Day 6)
90%: survivabilities (LPC 10 mpk, Day 1) | survivabilities (LPC 20 mpk, Day 1)
0/3: Mortalities (LPC 5 mpk, Day 5)
2/8: Mortalities (LPC 2.5 mpk, Day 2) | Mortalities (LPC 20 mpk, Day 3)
10/10: Mortalities (LPC 1 mpk, Total) | Mortalities (LPC 2.5 mpk, Total) | Mortalities (LPC 5 mpk, Total) | Mortalities (LPC 10 mpk, Total) | Mortalities (LPC 20 mpk, Total)

Reference: patent US9446061B2, “Composition containing antibiotics and lysophosphatidylcholine for boosting immunity or treatment of bacterial infections” (priority 2011, dated 2016)
